Laboratory results from patent US9487462B2, “Inhibitors of matrix metalloproteinases” (PharmaHungary 2000 Kft., priority 2010, dated 2016).
Where a name gives a salt, the structure may show the parent alone.

Experiments:
MMP9 = MMP9 (Homo sapiens, UniProt P14780); assay: MMP activity assay (fluorogenic substrate), MMP9 catalytic domain; type: biochemical; conditions: Table 2
Method: (§1) MMP activity assays were conducted as follows: MMP2, MMP9, MMP13 catalytic domain was expressed in E. coli in form of inclusion bodies followed by refolding and purification.
(§2) The Protocol of the Activity Assay:
(§3) Stock solution of substrate (Mca-Lys-Pro-Leu-Gly-Leu-Dpa-Ala-Arg-NH2) was prepared in DMSO at a concentration of 6 mM. Assays were performed in an assay buffer (50 mM Tris pH 7.5, 300 mM NaCl, 10 μM ZnSO4, 5 mM CaCl2, 0.005% Brij-35). The final DMSO concentration in all assays was 1.0%. […] The assays were carried out at 37° C. The fluorescence changes, resulting from the substrate cleavage, were detected using excitation at 340 nm and emission wavelength of 405 nm using a Wallac 1420 Microplate Reader. The reaction mixtures were preincubated with the inhibitors for 30 minutes. The reactions were started by the addition of MMP substrate, and the fluorescence intensity changes were measured after 60 minutes. The obtained fluorescence values were normalized and % inhibition values calculated. Dose response curves were determined from 6 concentration points using three fold dilution steps, each concentration point was determined in duplicate. IC50 values were calculated from the dose response curves.

[1] = Cytotoxicity, alamarBlue viability, MRC-5; type: cell-based; conditions: human, MRC-5 fibroblast cells, 48 hours incubation, read-out: MRC-5 LC50
Method: (§4) Beside the inhibitory effect on MMPs we tested the cytotoxicity of the selected compounds. These measurements were done in parallel on two cell lines. One of them was the healthy human fibroblast cell line MRC-5 while the other was the human colon tumor cell line HCT116. The viability of the cells was monitored using alamarBlue. This dye is reduced by the cells resulting in an increased fluorescent signal which is proportional to the number of living cells. Cells were incubated with the dilutions of the tested compounds for 48 hours then alamarBlue was added to them for 4 hours. After that the fluorescence changes were detected using excitation at 540 nm and emission wavelength of 590 nm by a Wallac 1420 Microplate Reader. IC50 values were determined for the compounds using six concentrations and duplicate points for each concentration.

[2] = Cytotoxicity, alamarBlue viability, HCT116; type: cell-based; conditions: human, HCT116 colon tumor cells, 48 hours incubation, read-out: HCT116 LC50
Method: as §4

MMP13 = MMP13 (Homo sapiens (Human), UniProt P45452); assay: MMP activity assay (fluorogenic substrate), MMP13 catalytic domain; type: biochemical; conditions: Table 2; read-out: MMP13 IC50
Method: as §1, §2
as §3, with “The fluorescence changes, resulting from the substrate cleavage, were detected using excitation at 340 nm and emission wavelength of 405 nm using a Wallac 1420 Microplate Reader.” left out

MMP2 = MMP2 (Homo sapiens, UniProt P08253); assay: MMP activity assay (fluorogenic substrate), MMP2 catalytic domain; type: biochemical; conditions: Table 2; read-out: MMP2 IC50
Method: as §1, §2, §3

MMP1 = MMP1 (Homo sapiens (Human), UniProt P03956); assay: MMP activity assay (fluorogenic substrate), MMP1; type: biochemical; conditions: Table 2; read-out: MM1 IC50
[3] = tested on: neonatal rat cardiac myocytes; assay: Cytoprotective effect in cardiac myocytes subjected to hypoxia and reoxygenation; type: cell-based
Method: Neonatal rat hearts were digested and isolated cardiomyocytes were plated onto 24-well plastic plates at […]. The cells were maintained at 37° C. in a humidified atmosphere of 5% CO2 and 95% air in a CO2 incubator until confluence was reached. Cultures at day 3 were used for treatments. Cells were kept under normoxic or simulated ischemic conditions, i.e. the growth medium was changed to a normoxic or hypoxic solution and the cells were incubated under 95% air and 5% CO2 or 95% N2 and 5% CO2 at 37° C. for 4 h, respectively as described in detail (Gorbe A, Giricz Z, Szunyog A, Csont T, Burley D S, Baxter G F, Ferdinandy P. Role of cGMP-PKG signaling in the protection of neonatal rat cardiac myocytes subjected to simulated ischemia/reoxygenation. Basic Res Cardiol. 105:643-650, 2010). The positive control ilomastate (0.5 microM) and MMP-inhibitors at different effective concentrations (EC 5, EC 10, EC 20, and EC50 as determined in previous test examples) were applied during normoxia or simulated ischemia and also during reoxygenation. The vehicle was DMSO. Cell viability was determined after Calcein A M fluorescent staining as described (Karliner J S, Honbo N, Summers K, Gray M O, Goetzl E J. The lysophospholipids sphingosine-1-phosphate and lysophosphatidic acid enhance survival during hypoxia in neonatal rat cardiac myocytes. J Mol Cell Cardiol, 33:1713-7, 2001). Total cell count was determined after digitonin treatment to permeabilize the cells by using propidium iodine fluorescent staining (Roy S S, Hajnoczky G. Calcium, mitochondria and apoptosis studied by fluorescence measurements. Methods. 46:213-223, 2008).

Sequence of MMP1 (P03956 100-469, species assumed): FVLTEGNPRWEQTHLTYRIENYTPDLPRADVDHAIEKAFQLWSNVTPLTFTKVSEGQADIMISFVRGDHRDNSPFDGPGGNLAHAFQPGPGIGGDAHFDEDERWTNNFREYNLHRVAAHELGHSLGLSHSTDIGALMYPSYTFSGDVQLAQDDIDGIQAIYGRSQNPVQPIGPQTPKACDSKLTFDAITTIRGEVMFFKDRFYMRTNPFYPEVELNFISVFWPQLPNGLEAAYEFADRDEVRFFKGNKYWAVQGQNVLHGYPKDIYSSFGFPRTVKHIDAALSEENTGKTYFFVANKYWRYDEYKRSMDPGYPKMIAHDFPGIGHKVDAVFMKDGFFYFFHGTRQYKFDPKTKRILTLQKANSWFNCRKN

| Compound | IC50 (MMP9) | IC50 (MMP13) | IC50 (MMP2) | IC50 (MMP1) | CC50 at 48 h [1] | CC50 at 48 h [2] | also measured |
| --- | --- | --- | --- | --- | --- | --- | --- |
| CCOC(=O)c1csc(CN(Cc2ccc(OCc3cccnc3)cc2)Cc2cccnc2)n1 [Compound 17, Ethyl 2-[({[4-(pyridin-3-ylmethoxy)phenyl]methyl}(pyridin-3-ylmethyl)amino)methyl]-1,3-thiazole-4-carboxylate] | 230 µM | 19 µM | 195 µM | 200 µM | 15 µM | 47 µM |  |
| CCOC(=O)c1csc(CN(Cc2ccc(F)cc2)Cc2ccc(OCc3ccncc3)cc2)n1 [Compound 18, Ethyl 2-({[(4-fluorophenyl)methyl]({[4-(pyridin-4-ylmethoxy)phenyl]methyl})amino}methyl)-1,3-thiazole-4-carboxylate] | 230 µM | 13 µM | > 500 µM | > 500 µM | 2.9 µM | 0.04 µM |  |
| O=C(O)c1csc(CN(Cc2ccc(OCc3ccccc3)cc2)CC(c2ccccc2)c2ccccc2)n1 [Compound 6, 2-[({[4-(Benzyloxy)phenyl]methyl}(2,2-diphenylethyl)amino)methyl]-1,3-thiazole-4-carboxylic acid] |  |  |  |  | 18 µM | 3.5 µM |  |
| O=C(O)c1csc(CN(Cc2ccccc2)Cc2ccccc2)n1 [Compound 7, 2-[(Dibenzylamino)methyl]-1,3-thiazole-4-carboxylic acid] | 13 µM | 3.2 µM | 10 µM | 11 µM | 117 µM | 73 µM |  |
| O=C(O)c1csc(CN(Cc2ccc(OCc3cccnc3)cc2)Cc2cccc(F)c2)n1 [Compound 8, 2-[({[4-(Pyridin-3-ylmethoxy)phenyl]methyl}[(3-fluorophenyl)methyl]amino)methyl]-1,3-thiazole-4-carboxylic acid] |  |  |  |  |  |  | Cytoprotective effect, % cell survival as compared to vehicle DMSO ([3]; normoxia, EC5 concentration 0.7 microM): 99 ± 4%; Cytoprotective effect, % cell survival as compared to vehicle DMSO ([3]; normoxia, EC10 concentration 2.0 microM): 103 ± 4%; Cytoprotective effect, % cell survival as compared to vehicle DMSO ([3]; normoxia, EC20 concentration 6.0 microM): 119 ± 5 %; Cytoprotective effect, % cell survival as compared to vehicle DMSO ([3]; normoxia, EC50 concentration 18.0 microM): 127 ± 4 %; Cytoprotective effect, % cell survival as compared to vehicle DMSO ([3]; simulated ischemia, EC5 concentration 0.7 microM): 117 ± 12%; Cytoprotective effect, % cell survival as compared to vehicle DMSO ([3]; simulated ischemia, EC10 concentration 2.0 microM): 120 ± 8%; Cytoprotective effect, % cell survival as compared to vehicle DMSO ([3]; simulated ischemia, EC20 concentration 6.0 microM): 144 ± 25%; Cytoprotective effect, % cell survival as compared to vehicle DMSO ([3]; simulated ischemia, EC50 concentration 18.0 microM): 107 ± 8% |
| O=C(O)c1csc(CN(Cc2ccc(F)cc2)Cc2ccc(OCc3ccncc3)cc2)n1 [Compound 9, 2-({[(4-Fluorophenyl)methyl]({[4-(pyridin-4-ylmethoxy)phenyl]methyl})amino}methyl)-1,3-thiazole-4-carboxylic acid] | 8.8 µM | 1.24 µM | 8 µM | 47 µM | 12 µM | 4.7 µM |  |
| O=C(O)c1c[nH]c(CNCc2ccc(OCc3cccnc3)cc2)n1 [Compound 31 HCl, 2-[({[4-(Pyridin-3-ylmethoxy)phenyl]methyl}amino)methyl]-1H-imidazole-4-carboxylic acid] |  |  |  |  |  |  | Cytoprotective effect, % cell survival as compared to vehicle DMSO ([3]; normoxia, EC5 concentration 0.25 microM): 108 ± 4%; Cytoprotective effect, % cell survival as compared to vehicle DMSO ([3]; normoxia, EC10 concentration 1.0 microM): 103 ± 3%; Cytoprotective effect, % cell survival as compared to vehicle DMSO ([3]; normoxia, EC20 concentration 4.0 microM): 106 ± 4%; Cytoprotective effect, % cell survival as compared to vehicle DMSO ([3]; normoxia, EC50 concentration 16.0 microM): 103 ± 3%; Cytoprotective effect, % cell survival as compared to vehicle DMSO ([3]; simulated ischemia, EC5 concentration 0.25 microM): 116 ± 8 %; Cytoprotective effect, % cell survival as compared to vehicle DMSO ([3]; simulated ischemia, EC10 concentration 1.0 microM): 107 ± 3%; Cytoprotective effect, % cell survival as compared to vehicle DMSO ([3]; simulated ischemia, EC20 concentration 4.0 microM): 126 ± 2 %; Cytoprotective effect, % cell survival as compared to vehicle DMSO ([3]; simulated ischemia, EC50 concentration 16.0 microM): 127 ± 3 % |
| CCOC(=O)c1csc(CN(Cc2ccc(F)cc2)Cc2ccc(OCc3ccccc3)cc2)n1 [Compound 11, Ethyl 2-[({[4-(benzyloxy)phenyl]methyl}[(4-fluorophenyl)methyl]amino)methyl]-1,3-thiazole-4-carboxylate] |  |  |  |  | 12 µM | 5.8 µM |  |

Continued, in another order:

| IC50 (MMP9) | IC50 (MMP13) | IC50 (MMP2) | IC50 (MMP1) | Compound | CC50 at 48 h [1] | CC50 at 48 h [2] | also measured |
| --- | --- | --- | --- | --- | --- | --- | --- |
| > 500 µM | 19 µM | 200 µM | 190 µM | CCOC(=O)c1csc(CN(Cc2ccc(OCc3ccncc3)cc2)Cc2cccnc2)n1 [Compound 19, Ethyl 2-{[(pyridin-3-ylmethyl)({[4-(pyridin-4-ylmethoxy)phenyl]methyl})amino]methyl}-1,3-thiazole-4-carboxylate] | 27 µM | 7.3 µM |  |
| 80 µM | 54 µM | 62 µM |  | O=C(c1cnc(CCc2ccccc2)[nH]1)N1CCCC1 [Compound 38, (2-Phenethyl-3H-imidazol-4-yl)-pyrrolidin-1-yl-methanone] |  |  |  |
| > 500 µM | 34 µM | > 500 µM | > 500 µM | Cn1cc(C(F)(F)F)nc1CN(Cc1ccc(F)cc1)Cc1ccc(OCc2ccccc2)cc1 [Compound 26, {[4-(Benzyloxy)phenyl]methyl}[(4-fluorophenyl)methyl]{[1-methyl-4-(trifluoromethyl)-1H-imidazol-2-yl]methyl}amine] | 40 µM | 25 µM |  |
| > 500 µM | 300 µM | > 500 µM |  | O=C(O)c1cnc(CCc2ccccc2)[nH]1 [Compound 36, 2-Phenethyl-3H-imidazole-4-carboxylic acid] |  |  |  |
| 145 µM | > 500 µM | 66 µM |  | COC(=O)c1cnc(CCc2ccccc2)[nH]1 [Compound 37, 2-Phenethyl-3H-imidazole-4-carboxylic acid methyl ester] |  |  |  |
| > 500 µM | 7.5 µM | > 500 µM | 325 µM | CCOC(=O)c1csc(CN(Cc2ccncc2)Cc2ccc(OCc3ccccc3)cc2)n1 [Compound 20, Ethyl 2-[({[4-(benzyloxy)phenyl]methyl}(pyridin-4-ylmethyl)amino)methyl]-1,3-thiazole-4-carboxylate] | 13 µM | 16 µM |  |
| 250 µM | 165 µM | 137 µM |  | O=C(O)c1cnc(-c2ccccc2)[nH]1 [Compound 40, 2-Phenyl-3H-imidazole-4-carboxylic acid] |  |  |  |
| > 500 µM | 340 µM | > 500 µM |  | FC(F)(F)c1cnc(-c2ccccc2)[nH]1 [Compound 39, 2-Phenyl-5-trifluoromethyl-1H-imidazole] |  |  |  |
| > 500 µM | 500 µM | > 500 µM |  | FC(F)(F)c1cnc(CCc2ccccc2)[nH]1 [Compound 35, 2-Phenethyl-5-trifluoromethyl-1H-imidazole] |  |  |  |
